Results: article PMC6345968, “Structural basis for species-selective targeting of Hsp90 in a pathogenic fungus” (Nature Communications, 2019)
pEC50, pIC50, pKi: −log10 of the molar value. Several values for one entry are separate records, joined by “and”; a condition that tells them apart may be missing. Equal values may be shown once. Read-outs that look alike come from different tables or passages of the source.

Legend:
C. albicans Hsp90 NBD = target: T1, C. albicans Hsp90 NBD (Candida albicans, UniProt P46598); assay: biochemical; format: binding
T1 construct: C. albicans Hsp90 (E7-K218); made in house; host or cells: E. coli Rosetta2
T1 sequence (P46598 7-218): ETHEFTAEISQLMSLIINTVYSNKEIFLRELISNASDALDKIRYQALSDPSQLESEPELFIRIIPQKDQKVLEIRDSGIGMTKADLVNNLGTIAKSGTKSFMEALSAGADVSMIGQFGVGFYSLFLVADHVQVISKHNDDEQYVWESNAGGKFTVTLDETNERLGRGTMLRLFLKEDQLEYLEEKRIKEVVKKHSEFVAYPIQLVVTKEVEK

[1] = target: T2, Hsp90 in C. albicans (SC5314) lysate (Candida albicans, UniProt P46598); assay: biochemical; format: binding; settings: for FP signal: raw
T2 construct: endogenous in cells; host or cells: C. albicans SC5314 whole-cell lysate
T2 sequence (P46598 whole entry): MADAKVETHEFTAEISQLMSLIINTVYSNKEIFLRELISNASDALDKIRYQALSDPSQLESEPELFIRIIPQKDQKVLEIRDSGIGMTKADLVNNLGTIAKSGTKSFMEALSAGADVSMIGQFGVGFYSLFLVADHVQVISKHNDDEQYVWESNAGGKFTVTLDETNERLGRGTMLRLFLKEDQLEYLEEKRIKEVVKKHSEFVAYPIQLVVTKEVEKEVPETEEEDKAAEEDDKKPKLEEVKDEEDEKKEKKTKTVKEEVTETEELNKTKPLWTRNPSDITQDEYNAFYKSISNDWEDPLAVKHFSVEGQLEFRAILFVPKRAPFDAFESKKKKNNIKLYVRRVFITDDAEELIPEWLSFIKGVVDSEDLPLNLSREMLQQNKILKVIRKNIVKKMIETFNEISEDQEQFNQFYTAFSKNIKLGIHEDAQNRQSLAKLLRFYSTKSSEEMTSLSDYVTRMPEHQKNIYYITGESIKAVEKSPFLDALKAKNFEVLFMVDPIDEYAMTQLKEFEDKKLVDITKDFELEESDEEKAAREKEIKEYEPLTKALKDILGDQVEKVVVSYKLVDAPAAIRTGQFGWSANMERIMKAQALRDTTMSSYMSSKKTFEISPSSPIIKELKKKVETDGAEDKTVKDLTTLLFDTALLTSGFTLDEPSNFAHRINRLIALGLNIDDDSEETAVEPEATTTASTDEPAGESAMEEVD

Hsp90 in 3T3 lysate = assay: FP competition in whole-cell lysate; format: binding, mouse; settings: quiescent 3T3 cells, FP
Description: After vortexing, cell lysate was frozen at −80 °C for 2 h, followed by thawing on ice. The vortex-freeze-thaw step was repeated. […] Aliquots were thawed immediately prior to use.

Hsp90 in HEPG2 lysate = settings: for FP signal (raw) / FP signal: HepG2 lysate; for FP signal: raw
human Grp94 NBD = human Grp94 NBD (Homo sapiens, UniProt P14625); assay: biochemical
Chain of human Grp94 NBD (P14625 63-337): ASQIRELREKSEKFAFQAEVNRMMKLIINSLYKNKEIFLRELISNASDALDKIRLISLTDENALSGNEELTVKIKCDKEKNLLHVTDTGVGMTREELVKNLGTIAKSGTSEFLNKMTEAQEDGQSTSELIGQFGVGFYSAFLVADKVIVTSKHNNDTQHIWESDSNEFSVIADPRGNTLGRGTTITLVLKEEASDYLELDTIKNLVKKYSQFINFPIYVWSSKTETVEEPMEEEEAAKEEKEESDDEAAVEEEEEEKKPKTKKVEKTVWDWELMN

[2] = SC5314 lysate, 0.457 nM compound
[3] = SC5314 lysate, 1.372 nM compound
[4] = SC5314 lysate, 4.115 nM compound
[5] = SC5314 lysate, 12.346 nM compound
[6] = SC5314 lysate, 37.037 nM compound
[7] = SC5314 lysate, 111.111 nM compound
[8] = SC5314 lysate, 333.333 nM compound
[9] = SC5314 lysate, 1000 nM compound
[10] = SC5314 lysate, 3000 nM compound

**Q.** With `COc1ccc(CON=C2C=CC=CC3OC3CC(C)OC(=O)c3c(O)cc(O)cc3C2)cc1` (centres unmarked) [CMLD013075] as the compound, how does the pIC50 (C. albicans Hsp90 NBD; corrected I50, single experiments, unit inferred, read-out: IC50 (Equation 16)) read?
**A.** 7.11 and 7.10 and 7.36

**Q.** What about the pKi (C. albicans Hsp90 NBD; purified NBD, Cy3-GdA probe, mean (± SEM) of 3 experiments, read-out: Ki) of the same compound?
**A.** 8.11

**Q.** And the “selectivity for fungal Hsp90 NBD over human Grp94 NBD” value (C. albicans Hsp90 NBD; purified NBDs, FP)?
**A.** ~ 5 fold and 5 fold

**Q.** What about the “selectivity for fungal Hsp90 NBD over human Hsp90 NBD” value (C. albicans Hsp90 NBD; purified NBDs, FP) of the same compound?
**A.** ~ 28 fold and > 25 fold

**Q.** And the pIC50 (C. albicans Hsp90 NBD; single experiments Expt 1-3, read-out: I50)?
**A.** 7.08 and 7.32

**Q.** And the Ki (C. albicans Hsp90 NBD; single experiments Expt 1-3, read-out: Inhibitor Ki)?
**A.** 8.8 nM (2×) and 5.5 nM

**Q.** What about the “normalized fungal selectivity in lysates” value ([1]; C. albicans SC5314 vs HEPG2 lysate, FP) of the same compound?
**A.** 4.6 fold

**Q.** What about the “relative binding affinity in fungal vs mammalian lysates” value ([1]; C. albicans vs HEPG2 and 3T3 lysates, FP) of the same compound?
**A.** higher

**Q.** And the pEC50 ([1]; EC50, SC5314 lysate, not normalized, oxime panel experiment 220817)?
**A.** 6.30

**Q.** And the “Ratio re. GdA” value ([1]; EC50 relative to GdA, SC5314 lysate)?
**A.** 29.6649

**Q.** What about the “FP signal (raw)” value ([1]; SC5314 lysate, 0.457 nM) of the same compound?
**A.** 200

**Q.** What about the “FP signal relative to 0 nM” value [1, 2] of the same compound?
**A.** 0.9709

**Q.** What about the FP signal [1, 2] of the same compound?
**A.** 200

**Q.** And the “FP signal (raw)” value ([1]; SC5314 lysate, 1.372 nM)?
**A.** 200

**Q.** What about the “FP signal relative to 0 nM” value [1, 3] of the same compound?
**A.** 0.9709

**Q.** What about the FP signal [1, 3] of the same compound?
**A.** 200

**Q.** What about the “FP signal (raw)” value ([1]; SC5314 lysate, 4.115 nM) of the same compound?
**A.** 199

**Q.** What about the “FP signal relative to 0 nM” value [1, 4] of the same compound?
**A.** 0.966

**Q.** And the FP signal [1, 4]?
**A.** 199

**Q.** And the “FP signal (raw)” value ([1]; SC5314 lysate, 12.346 nM)?
**A.** 199

**Q.** What about the “FP signal relative to 0 nM” value [1, 5] of the same compound?
**A.** 0.966

**Q.** And the FP signal [1, 5]?
**A.** 199

**Q.** And the “FP signal (raw)” value ([1]; SC5314 lysate, 37.037 nM)?
**A.** 196

**Q.** What about the “FP signal relative to 0 nM” value [1, 6] of the same compound?
**A.** 0.9515

**Q.** And the FP signal [1, 6]?
**A.** 196

**Q.** What about the “FP signal (raw)” value ([1]; SC5314 lysate, 111.111 nM) of the same compound?
**A.** 182

**Q.** And the “FP signal relative to 0 nM” value [1, 7]?
**A.** 0.8835

**Q.** And the FP signal [1, 7]?
**A.** 182

**Q.** What about the “FP signal (raw)” value ([1]; SC5314 lysate, 333.333 nM) of the same compound?
**A.** 146

**Q.** What about the “FP signal relative to 0 nM” value [1, 8] of the same compound?
**A.** 0.7087

**Q.** What about the FP signal [1, 8] of the same compound?
**A.** 146

**Q.** What about the “FP signal (raw)” value ([1]; SC5314 lysate, 1000 nM) of the same compound?
**A.** 69

**Q.** What about the “FP signal relative to 0 nM” value [1, 9] of the same compound?
**A.** 0.335

**Q.** And the FP signal [1, 9]?
**A.** 69

**Q.** What about the “FP signal (raw)” value ([1]; SC5314 lysate, 3000 nM) of the same compound?
**A.** 40

**Q.** And the “FP signal relative to 0 nM” value [1, 10]?
**A.** 0.1942

**Q.** What about the FP signal [1, 10] of the same compound?
**A.** 40

**Q.** And the HepG2/SC5314 ([1]; ratio of GdA-normalized EC50s, human over fungal lysate)?
**A.** 4.5595

**Q.** And the HepG2/SC5314 ([1]; ratio of GdA-relative EC50 ratios, HepG2 over SC5314)?
**A.** 4.5595

**Q.** And the “relative binding affinity in 3T3 lysate vs HEPG2 lysate” value (Hsp90 in 3T3 lysate)?
**A.** lower in 3T3 lysate than HEPG2 lysate

**Q.** And the “Ratio rel. GdA (HepG2)” value (Hsp90 in HEPG2 lysate; EC50 / EC50 of GdA in HepG2 lysate)?
**A.** 135.257

**Q.** What about the “Ratio rel. GdA (HepG2)” value (Hsp90 in HEPG2 lysate; EC50 relative to GdA, HEPG2 lysate) of the same compound?
**A.** 135.257

**Q.** And the “FP signal, Fxn Control” value (Hsp90 in HEPG2 lysate; HEPG2 lysate, log concentration 0.137354 (1.372 nM))?
**A.** 0.9857

**Q.** And the “FP signal, Fxn Control” value (Hsp90 in HEPG2 lysate; HEPG2 lysate, log concentration 0.61437 (4.115 nM))?
**A.** 0.9905

**Q.** What about the “FP signal, Fxn Control” value (Hsp90 in HEPG2 lysate; HEPG2 lysate, log concentration 1.09153 (12.346 nM)) of the same compound?
**A.** 1

**Q.** What about the “FP signal, Fxn Control” value (Hsp90 in HEPG2 lysate; HEPG2 lysate, log concentration 1.56864 (37.037 nM)) of the same compound?
**A.** 1.005

**Q.** And the “FP signal, Fxn Control” value (Hsp90 in HEPG2 lysate; HEPG2 lysate, log concentration 2.04576 (111.111 nM))?
**A.** 0.9905

**Q.** What about the “FP signal, Fxn Control” value (Hsp90 in HEPG2 lysate; HEPG2 lysate, log concentration 2.52288 (333.333 nM)) of the same compound?
**A.** 0.9762

**Q.** And the “FP signal, Fxn Control” value (Hsp90 in HEPG2 lysate; HEPG2 lysate, log concentration 3 (1000 nM))?
**A.** 0.8333

**Q.** What about the “FP signal, Fxn Control” value (Hsp90 in HEPG2 lysate; HEPG2 lysate, log concentration 3.47712 (3000 nM)) of the same compound?
**A.** 0.5286

**Q.** And the “FP signal, Fxn Control” value (Hsp90 in HEPG2 lysate; HEPG2 lysate, log concentration -0.340084 (0.457 nM))?
**A.** 0.9857

**Q.** What about the “FP signal (raw)” value (Hsp90 in HEPG2 lysate; 0.457 nM) of the same compound?
**A.** 207

**Q.** And the FP signal (Hsp90 in HEPG2 lysate; 0.457 nM compound)?
**A.** 207

**Q.** And the “FP signal (raw)” value (Hsp90 in HEPG2 lysate; 1.372 nM)?
**A.** 207

**Q.** And the FP signal (Hsp90 in HEPG2 lysate; 1.372 nM compound)?
**A.** 207

**Q.** What about the “FP signal (raw)” value (Hsp90 in HEPG2 lysate; 4.115 nM) of the same compound?
**A.** 208

**Q.** What about the FP signal (Hsp90 in HEPG2 lysate; 4.115 nM compound) of the same compound?
**A.** 208

**Q.** And the “FP signal (raw)” value (Hsp90 in HEPG2 lysate; 12.346 nM)?
**A.** 210

**Q.** What about the FP signal (Hsp90 in HEPG2 lysate; 12.346 nM compound) of the same compound?
**A.** 210

**Q.** What about the “FP signal (raw)” value (Hsp90 in HEPG2 lysate; 37.037 nM) of the same compound?
**A.** 211

**Q.** What about the FP signal (Hsp90 in HEPG2 lysate; 37.037 nM compound) of the same compound?
**A.** 211

**Q.** And the “FP signal (raw)” value (Hsp90 in HEPG2 lysate; 111.111 nM)?
**A.** 208

**Q.** And the FP signal (Hsp90 in HEPG2 lysate; 111.111 nM compound)?
**A.** 208

**Q.** And the “FP signal (raw)” value (Hsp90 in HEPG2 lysate; 333.333 nM)?
**A.** 205

**Q.** And the FP signal (Hsp90 in HEPG2 lysate; 333.333 nM compound)?
**A.** 205

**Q.** And the “FP signal (raw)” value (Hsp90 in HEPG2 lysate; 1000 nM)?
**A.** 175

**Q.** And the FP signal (Hsp90 in HEPG2 lysate; 1000 nM compound)?
**A.** 175

**Q.** And the “FP signal (raw)” value (Hsp90 in HEPG2 lysate; 3000 nM)?
**A.** 111

**Q.** And the FP signal (Hsp90 in HEPG2 lysate; 3000 nM compound)?
**A.** 111

**Q.** And the heat-shock reporter activation (293T reporter cells)?
**A.** activation required much higher concentrations

**Q.** And the pIC50 (human Grp94 NBD; I50, single experiments Expt 1-3)?
**A.** 6.37 and 6.31 and 6.58

**Q.** And the pIC50 (human Grp94 NBD; IC50 (Equation 16), corrected I50, single experiments, unit inferred)?
**A.** 6.37 and 6.31 and 6.59

**Q.** What about the pKi (human Grp94 NBD; Inhibitor Ki, single experiments Expt 1-3) of the same compound?
**A.** 7.36 and 7.31 and 7.58

**Q.** And the pKi (human Grp94 NBD; Ki, purified NBD, Cy3-GdA probe, mean (± SEM) of 3 experiments)?
**A.** 7.40
